Experimental data from article PMC7367283, “A PIP2 substitute mediates voltage sensor-pore coupling in KCNQ activation” (Communications Biology, 2020).

Target: T1, KV4.2 (Rattus norvegicus, UniProt Q63881)
T1 sequence (Q63881 1-630): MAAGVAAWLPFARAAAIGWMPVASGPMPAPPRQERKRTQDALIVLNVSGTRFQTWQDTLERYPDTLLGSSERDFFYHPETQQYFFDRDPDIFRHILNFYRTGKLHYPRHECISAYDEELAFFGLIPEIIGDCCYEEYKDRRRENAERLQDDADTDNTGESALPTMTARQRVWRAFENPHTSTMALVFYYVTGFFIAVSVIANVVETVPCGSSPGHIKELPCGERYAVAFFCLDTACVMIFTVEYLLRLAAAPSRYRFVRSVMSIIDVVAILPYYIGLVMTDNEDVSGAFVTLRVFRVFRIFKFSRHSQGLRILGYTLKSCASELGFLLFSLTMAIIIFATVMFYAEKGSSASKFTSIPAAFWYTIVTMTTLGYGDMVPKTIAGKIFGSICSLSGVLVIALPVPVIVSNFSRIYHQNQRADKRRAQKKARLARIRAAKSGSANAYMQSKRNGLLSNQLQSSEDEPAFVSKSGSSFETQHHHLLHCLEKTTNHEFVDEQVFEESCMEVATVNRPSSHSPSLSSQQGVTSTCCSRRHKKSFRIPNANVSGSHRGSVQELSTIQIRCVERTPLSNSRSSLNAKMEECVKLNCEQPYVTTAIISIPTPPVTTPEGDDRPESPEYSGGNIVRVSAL
Assay: Two-electrode voltage clamp of KV4.2 in Xenopus oocytes
Type: cell-based, human
Conditions: 10 µM CP1
From the text: Since CP1 has a similar effect to PIP2 in mediating VSD-pore coupling in KCNQ channels, we tested if CP1 has effects on other ion channels that are also sensitive to PIP2 or are voltage activated and share general structural features of the VSD and the pore with KCNQ. […] On the other hand, NaV1.5 and KV4.2 are voltage-gated ion channels.
Fig. 6 Effects of CP1 on other ion channels expressed in Xenopus oocytes. a Currents of Kir1.1, CaV1.2, NaV1.5, hERG, and KV4.2 before and after application of 10 µM CP1, respectively. The voltages for holding, test, and returning pulses were Kir1.1, 0 mV, −100 to +60 mV, 0; CaV1.2, −100 mV, −100 to +60, −100 mV; NaV1.5, −100, −120 to +40 mV, −120 mV; hERG, −80 mV, −90 to +60 mV, −60 mV; KV4.2, −80 mV, −100 mV to +80 mV, −40 mV; HCN4, −30 mV, −30 to −140 mV, −120 mV. b Current–voltage relations of Kir1.1 channel in the absence or presence of 10 µM CP1 (n = 7). c–g G–V relations of indicated channels with and without 10 µM CP1. The ΔV1/2 of G–V relations (mV) are CaV1.2, 3.38 ± 0.71 mV (c); NaV1.5, −2.26 ± 0.95 mV (d); hERG, 6.85 ± 1.81 mV (e); KV 4.2, −2.26 ± 2.88 mV (f); HCN4, 17.13 ± 1.59 mV (g).
Complementary DNA (cDNA) encoding human KCNQ1 (UniProtKB/Swiss‐Prot under accession no. P51787), KCNQ2 (O43526), KCNQ3 (O43525), KCNE1 (P15382), Kir1.1 (P48048), hERG (Q12809), KV4.2 (Q63881), NaV1.5 (Q14524), NaV β1 (Q07699), CaV1.2 (Q13936), CaV β1a (Q02641), CaV α2/δ1 (P54289), and HCN4 (Q9Y3Q4) were subcloned into oocyte expression vectors, respectively. Site-directed mutations of the KCNQ1 channel were all produced by overlap extension polymerase chain reaction (PCR) with high-fidelity Pfu polymerase (Stratagene, CA). The presence of the desired mutation was verified by sequencing the PCR-amplified regions. All the primer sequences used in this study are available in Supplementary Table 1. The complementary RNA (cRNA) of all these channels and mutations was transcribed in vitro with the T3, T7, or SP6 polymerase mMessage mMachine kit (Invitrogen, Thermo Fisher Scientific, MO).
The whole-oocyte ionic currents were recorded with a GeneClamp 500B amplifier (Axon Instruments, CA) or iTEV90 amplifier (HEKA, Germany) and then sampled at 1 kHz and low-pass-filtered at 2 kHz. The Patchmaster software (HEKA, Germany) was used to acquire data. The Kir1.1 current was recorded with a high K^+ bath solution containing (in mM) 96 KCl, 4 NaCl, 1 CaCl2, 2 MgCl2, and 10 HEPES, pH 7.3–7.4. The HCN4 current was recorded in ND66 solution containing (in mM) 66 NaCl, 32 KCl, 1.8 CaCl2, 1 MgCl2, and 5 HEPES, pH 7.6. All the other potassium channels were recorded in ND96 solution. The currents of CaV1.2 channel were recorded in 40 mM Ba^2+ bath solution containing (in mM) 40 Ba(OH)2, 50 TEA-OH, 2 KOH, and 5 HEPES, adjusted to pH 7.4 with methanesulfonic acid. CP1 (DISODIUM 5-BROMO-2-[9-CHLORO-3-(SULFONATOOXY) NAPHTHO [1,2-B] THIEN-2-YL]-1H-INDOL-3-YL SULFATE, Sigma-Aldrich, MO) and Chromanol 293B (Sigma-Aldrich, MO) were dissolved in bath solutions. All the chemicals were purchased from Sigma-Aldrich. To measure the I–V relations of the Kir1.1 channel, the test voltage was set from −100 to +60 mV for 1 s with 20-mV increments. The test pulses were stepped from a holding potential of 0 mV and then stepped back to 0 mV. The HCN4 currents were recorded by a test pulse between −30 and −140 mV in 10-mV step from a holding potential of −30 mV. For all the other potassium channels and CaV1.2 channel, the holding potential was −80 or −100 mV, and the test pulse was applied with 10-mV increment, which was followed with a repolarization pulse at −40 mV before returning to the holding potential. The durations of test and the repolarization pulse vary for different channels to allow the activation and deactivation of the channel to reach their steady states.

## O=S(=O)([O-])Oc1c(-c2sc3c(ccc4cccc(Cl)c43)c2OS(=O)(=O)[O-])[nH]c2ccc(Br)cc12.[Na+].[Na+] [CP1, DISODIUM 5-BROMO-2-[9-CHLORO-3-(SULFONATOOXY) NAPHTHO [1,2-B] THIEN-2-YL]-1H-INDOL-3-YL SULFATE]
  ΔV1/2 of G–V relations: −2.26 ± 2.88 mV
Voltage 0 mV
  G/Gmax Mean (Fig. 6f): 0.3489
Voltage 10 mV
  G/Gmax Mean (Fig. 6f): 0.4229
Voltage 20 mV
  G/Gmax Mean (Fig. 6f): 0.5032
Voltage 30 mV
  G/Gmax Mean (Fig. 6f): 0.5901
Voltage 40 mV
  G/Gmax Mean (Fig. 6f): 0.6796
Voltage 50 mV
  G/Gmax Mean (Fig. 6f): 0.7731
Voltage 60 mV
  G/Gmax Mean (Fig. 6f): 0.8507
Voltage 70 mV
  G/Gmax Mean (Fig. 6f): 0.9365
Voltage 80 mV
  G/Gmax Mean (Fig. 6f): 1.0000
Voltage -10 mV
  G/Gmax Mean (Fig. 6f): 0.2734
Voltage -20 mV
  G/Gmax Mean (Fig. 6f): 0.2218
Voltage -30 mV
  G/Gmax Mean (Fig. 6f): 0.1858
Voltage -40 mV
  G/Gmax Mean (Fig. 6f): 0.1969
Voltage -50 mV
  G/Gmax Mean (Fig. 6f): 0.2134
